Experimental data taken from paper PMC7352571, “New Anti-Cancer Strategy to Suppress Colorectal Cancer Growth Through Inhibition of ATG4B and Lysosome Function” (Cancers, 2020).
pIC50: −log10 of the molar value.

How the values were obtained:
LC3-II in HeLa cells = test: western blot for LC3 conversion, HeLa; format: cell-based; details: 1, 5, 10, 20 µM for 6 h; 10 µM time course
Procedure: (§1) Figure S2. 163N could inhibit autophagy flux. (A) HeLa cells treated with different concentrations of
(§2) II/TUBA was calculated using ImageJ software.
(§3) was examined. The number of GFP-LC3B dots was quantified. Data are presented as mean ± SEM
(§4) was performed to assess cell viability. […]

[1] = test system: LC3B and LAMP1 in HeLa cells; test: immunostaining, colocalization of LC3B and LAMP1; format: cell-based; details: 10 µM, 6 h
Procedure: Figure 4 163N increases the accumulation of autolysosomes. (A) HEK293A cells expressing green fluorescent protein (GFP)-red fluorescent protein (RFP)-LC3 were treated with 163N (10 µM), rapamycin (Rap) (1 µM) or Baf (0.5 µM) for 6 h, then the colocalization of GFP and RFP puncta was detected. […] The colocalization of LC3B and LAMP1 was measured. […] Red arrows indicate normal autolysosome structures. (D) ATG4BKO HeLa cells expressing GFP-LC3[G120] or full length GFP-LC3 were treated with Rap (1 µM), 163N (10 µM), or CQ (40 µM) for 6 h, then the distribution of GFP-LC3 was examined. And the number of GFP-LC3 dots were quantified.
(§5) Immunostaining assay was performed as described previously. Cells were fixed in 4% paraformaldehyde for 15–20 min followed by permeabilization with 0.1% Triton X-100 for another 15 min. Then, PBS containing 5% bovine serum albumin was used for blocking. Primary antibodies (1:150) was used at 4° for one night and then secondary antibodies (1:500) were applied at room temperature for 1 h. EVOS FL Auto (Life Technologies) was used to get the fluorescence images. At least three optical fields with at least 100 cells were analyzed for quantification.

HeLa cells = test: CCK-8 cell viability assay, HeLa; format: cell-based
Procedure: (§6) Cells were seeded and incubated overnight in 96-well plates at a density of 5 × 10^3 cells/well. […] A total of 10 µL CCK-8 were added to each well for additional 1 h and cell viability was measured by CCK-8 assay. Absorbance was measured at 450 nm. The IC50 values were calculated by GraphPad Prism 7 (GraphPad Software Inc., San Diego, CA, USA).

ATG16L1 KO Hela cells = test: CCK-8 assay, ATG16L1 KO Hela cells; format: cell-based; details: Homo sapiens
Procedure: as §6
Figure S4. The identification of ATG4B knockout HCT116 cells. (A) The genomic DNA of HCT116 cells in the control group transfected with GFP-sgRNA and the experimental group transfected with ATG4B-sgRNA was used as a template for PCR, and the PCR products were used for sequencing. (B) Protein levels of ATG 4B and LC3B in the control and ATG4BKO cells.
Figure S5. 163N induces cell death through targeting autophagy. (A) Hela cells were treated with […]
performed to assess cell proliferation. ( B) Hela cells or ATG16L1 KO Hela cells were treated with […]

L02 cells = test: CCK-8 cell viability assay, normal cells L02; format: cell-based; details: at a higher concentration (40 µM), 48 h
Procedure: as §6, §1, §2, §3, §4

A549 cells = test: CCK-8 cell viability assay, A549; format: cell-based; details: Homo sapiens, CCK-8 assay, 48 h
Procedure: as §6

LC3-II in HCT116 cells = test: western blot for LC3 conversion, HCT116; details: 1, 5, 10, 20 µM for 6 h; 10 µM time course
Procedure: The ratio of LC3B-II/TUBA was calculated using ImageJ software. […] The ratio of LC3B-II/TUBA was calculated using ImageJ software. […] Data are presented as mean ± SEM from three individual experiments. ** p < 0.01, *** p <0.001, ns, not significant.
20–30 µg of whole cell lysates were separated by SDS-PAGE to avoid saturation and transferred to PVDF membranes (Millipore, ISEQ00010, Burlington, MA, USA). After blocking, the membrane was incubated with primary antibodies and secondary antibodies. Specific proteins were detected using enhanced chemiluminescence developing agent (Millipore, WBULS0500). Images were taken using Kodak Image Station 4000 (Carestream Health, Rochester, NY, USA).

MRC-5 cells = test: CCK-8 cell viability assay, normal cells MRC-5; format: cell-based; details: at a higher concentration (40 µM), 48 h
Procedure: as §6, §1, §2, §3, §4

MDA-MB-231 cells = test: CCK-8 cell viability assay, MDA-MB-231; format: cell-based; details: Homo sapiens, CCK-8 assay, 48 h
Procedure: as §6

U87 cells = test: CCK-8 cell viability assay, U87; format: cell-based; details: Homo sapiens, U-87 MG; CCK-8 assay, 48 h
Procedure: as §6

HL60 cells = test: CCK-8 cell viability assay, HL60; format: cell-based; details: Homo sapiens, HL-60; CCK-8 assay
Procedure: as §6

caspase-3 = biological target: T1, caspase-3 (Homo sapiens, UniProt P42574); test: caspase-3 activity assay (Ac-DEVE-AFC cleavage in lysate of staurosporine-treated HeLa cells); format: biochemical; details: even at a concentration of 50 µM
T1 construct: endogenous in cells; host or cells: HeLa (staurosporine-treated, whole cell lysate)
Procedure: . (B) Predicted binding model of compound XOS00163, XOS00201, and XOS00207 bind to ATG4B (PDB ID: 2CY7) pocket. […] . […] . HeLa cells were treated with 1 µM of staurosporine (SP) for 12 h to induce cell apoptosis. Then, 2 µg of the whole cell lysate were mixed with indicated compounds at 37° for 30 min, Ac-DEVE-AFC (25 µM) were then added to a volume of 50 µL, and the emission of 505 nm for AFC was recorded. […] |

KYSE150 cells = test: CCK-8 cell viability assay, KYSE150; format: cell-based; details: Homo sapiens, KYSE-150; CCK-8 assay, 48 h
Procedure: as §6

SGC7901 cells = test: CCK-8 cell viability assay, SGC7901; format: cell-based; details: Homo sapiens, SGC-7901; CCK-8 assay, 48 h
Procedure: as §6

[2] = test system: lysosomal membrane permeabilization in HeLa cells; test: immunostaining, colocalization of cathepsin B and LAMP1; format: cell-based; details: 10 µM, 6 h
Procedure: Figure 5 163N causes lysosome dysfunction. […] (C) HeLa cells were treated with or without 163N (10 µM) for 6 h, followed by immunostaining using cathepsin B and LAMP1 antibody. The colocalization of cathepsin B and LAMP1 was measured.
as §5

HCT116 cells = test: CCK-8 cell viability assay, HCT116; format: cell-based, Human
Procedure: as §6

T1 sequence (P42574 29-175 limits assumed): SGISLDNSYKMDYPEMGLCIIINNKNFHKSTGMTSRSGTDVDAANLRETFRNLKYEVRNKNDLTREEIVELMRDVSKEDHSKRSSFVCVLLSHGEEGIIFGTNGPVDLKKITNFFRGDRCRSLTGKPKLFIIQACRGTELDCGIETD
T1 sequence (P42574 176-277 limits assumed): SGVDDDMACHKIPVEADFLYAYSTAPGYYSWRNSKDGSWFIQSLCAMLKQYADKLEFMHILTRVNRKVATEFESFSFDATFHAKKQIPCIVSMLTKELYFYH

Structure (SMILES): COc1ccc(Nc2cc(C)nc(Nc3ccc(-c4cc5ccccc5o4)cc3)n2)cc1 [Compound 163N]
- LC3-II level, HeLa (LC3-II in HeLa cells): dose- and time-dependent accumulation of LC3-II
- LC3 puncta and co-localization with LAMP1 [1]: remarkable increase of LC3 puncta, which were well co-localized with LAMP1
- cytotoxicity relative to XOS00163, XOS00201 and XOS00207, HeLa (HeLa cells; HeLa cells): about five times higher cytotoxicity
- pIC50 (HeLa cells; Homo sapiens, HeLa, CCK-8 assay, 48 h): 5.15
- pIC50 (ATG16L1 KO Hela cells): 4.91
- cell viability of normal cells L02 (L02 cells): reduce the cell viability
- pIC50 (A549 cells): 5.11
- LC3-II level, HCT116 (LC3-II in HCT116 cells): dose- and time-dependent accumulation of LC3-II
- cell viability of normal cells MRC-5 (MRC-5 cells): reduce the cell viability
- pIC50 (MDA-MB-231 cells): 5.00
- pIC50 (U87 cells): 4.98
- pIC50 (HL60 cells): 4.90
- inhibition effect on caspase-3 activity (caspase-3): no inhibition effect
- pIC50 (KYSE150 cells): 4.89
- pIC50 (SGC7901 cells): 4.67
- lysosomal membrane permeabilization (cathepsin B/LAMP1 colocalization) [2]: did not produce lysosomal membrane permeabilization
- cytotoxicity relative to XOS00163, XOS00201 and XOS00207, HCT116 (HCT116 cells; HCT116 cells): about five times higher cytotoxicity
- pIC50 (HCT116 cells; Homo sapiens, HCT-116, CCK-8 assay, 48 h): 5.24
